# “And” between values parts separate entries of the source, which are not always exact repeats. Identical values can stand only once.
# Tests used:
# [1] = system: Staphylococcus aureus; assay: Antibacterial activity against Staphylococcus aureus ATCC 25923 assessed as inhibition of bacterial growth; type: functional, organism-based
# [2] = system: Staphylococcus aureus; assay: Antibacterial activity against Staphylococcus aureus ATCC 29213 assessed as inhibition of bacterial growth; type: functional, organism-based
# [3] = system: Staphylococcus aureus; assay: Antibacterial activity against Staphylococcus aureus ATCC 43300 assessed as inhibition of bacterial growth; type: functional, organism-based
# [4] = system: Pichia kudriavzevii; assay: Antifungal activity against Candida krusei assessed as inhibition of fungal growth measured after 48 hrs by CLSI based agar dilution method; type: functional, organism-based
# [5] = Antioxidant activity assessed as ABTS radical scavenging activity; type: functional
# [6] = Antioxidant activity assessed as DPPH radical scavenging activity; type: functional
# [7] = system: HaCaT; assay: Antiinflammatory activity against human HaCaT cells assessed as inhibition of PGE2 production; type: functional, cell-based
# [8] = Antioxidant activity assessed as hydrogen peroxide scavenging activity; type: functional
# [9] = Inhibition of H2O2-induced ROS production in human HaCaT cells; type: functional, cell-based
# [10] = system: BV-2; assay: Antiinflammatory activity in mouse BV2 cells assessed as reduction in LPS-induced nitric oxide production; type: functional, cell-based
# [11] = system: RAW264.7; assay: Antiinflammatory activity in mouse RAW264.7 cells assessed as reduction in LPS-induced nitric oxide production; type: functional, cell-based
# [12] = system: Mus musculus; assay: Anxiolytic activity in mouse assessed as increase in time spent in open arm at 5 mg/kg, po measured after 60 mins by elevated plus maze test; type: functional; settings: 1 h
# [13] = system: Mus musculus; assay: Anxiolytic activity in mouse assessed as number of entries in open arm at 5 mg/kg, po measured after 60 mins by elevated plus maze test; type: functional; settings: 1 h
# [14] = system: RAW264.7; assay: Antiinflammatory activity in mouse RAW 264.7 cells assessed as inhibition of LPS-induced nitric oxide production measured after 48 hrs by Griess reagent assay; type: functional, cell-based; settings: RAW264.7, 48 h
# [15] = system: K562; assay: Induction of cell cycle arrest in human K562 cells measured for 24 hrs; type: functional, cell-based; settings: K562, 24 h
# [16] = system: PC-3; assay: Induction of cell cycle arrest in human PC-3 cells measured for 24 hrs; type: functional, cell-based; settings: PC-3, 24 h
# [17] = system: RAW264.7; assay: Antiinflammatory activity against mouse RAW264.7 cells assessed as inhibition of LPS-induced COX2 expression; type: functional, cell-based
# [18] = system: RAW264.7; assay: Antiinflammatory activity against mouse RAW264.7 cells assessed as inhibition of LPS-induced COX1 expression; type: functional, cell-based
# [19] = system: HL-60; assay: Cytotoxicity against human HL-60 cells assessed as reduction in cell viability; type: functional, cell-based
# [20] = system: Trichophyton rubrum; assay: Antimicrobial activity against Trichophyton rubrum assessed as inhibition zone at 5 ug/disk; type: functional; settings: read-out: IZ
# [21] = Inhibition of elastase (unknown origin); parameters: species or system Homo sapiens
# [22] = system: K562; assay: Cytotoxicity against human K562 cells assessed as reduction in cell viability; type: functional, cell-based
# [23] = system: A549; assay: Cytotoxicity against human A549 cells assessed as reduction in cell viability; type: functional, cell-based
# [24] = system: SGC-7901; assay: Cytotoxicity against human SGC-7901 cells assessed as reduction in cell viability; type: functional, cell-based; settings: sgc-7901
# [25] = Antioxidant activity assessed as DPPH radical scavenging activity at 20 uM relative to control; type: functional
# [26] = Antioxidant activity assessed as DPPH radical scavenging activity incubated for 30 mins by spectrophotometric analysis; type: functional
# [27] = system: CT26.WT; assay: Cytotoxicity against mouse CT26.WT cells by MTT assay; type: functional, cell-based
# [28] = system: B16-F10; assay: Cytotoxicity against mouse B16-F10 cells by MTT assay; type: functional, cell-based
# [29] = system: CHO; assay: Cytotoxicity against CHO cells by MTT assay; type: functional, cell-based; settings: Cricetulus griseus
# [30] = system: MeWo; assay: Cytotoxicity against human MeWo cells by MTT assay; type: functional, cell-based
smiles,measurement,setting,value
COc1cc(O)c(-c2c(O)cc(OC)c3c2ccc2cc(O)ccc23)c2c1-c1ccc(O)cc1CC2 [CIRRHOPETALANTHRIN],IC50,[1],25 µg/mL
same,IC50,[2],25 µg/mL
same,IC50,[3],25 µg/mL
OC(Cn1cncn1)(Cn1cncn1)c1ccc(F)cc1F [FLUCONAZOLE],IC50,[4],32 µg/mL
C=Cc1c(C)c(O)c(-c2c(O)c(C)c(C=C)c3c2ccc2c(C)c(O)ccc23)c2ccc3c(C)c(O)ccc3c12,Activity,[5],85.2%
COc1cc(O)c2c(ccc3cc(O)ccc32)c1-c1c(OC)cc(O)c2c1ccc1cc(O)ccc12,IC50,[6],9.4 µg/mL
N=C(N)NN [PIMAGEDINE],IC50,[6]; read-out: IC50,21.7 µM
COc1c(O)cc2c3c1COc1cc(O)cc(c1-3)CC2,IC50,[7],12.2 µM
same,EC50,[6],8.8 µM
same,IC50,[6]; read-out: IC50,8.4 µM
same,IC50,[8],0.03 µM
same,IC50,[9],8.8 µM
COc1ccc2ccc3ccc(O[C@@H]4O[C@H](CO)[C@@H](O)[C@H](O)[C@H]4O)c(O)c3c2c1,IC50,[10],10.6 µg/mL
same,IC50,[6]; read-out: IC50,0.2 µM
CNC(=N)NCCC[C@H](N)C(=O)O [TILARGININE],IC50,[10],16.3 µM
C=Cc1cc(O)cc2c1-c1ccc(O)c(C)c1CC2 [EFFUSOL],IC50,"[11]; Mus musculus, RAW264.7",15.1 µM
same,Time,[12],75.5 s
same,Activity,[13],7.8
COc1cc(O)cc2cc(O)c3cccc(OC)c3c12,IC50,[6]; read-out: IC50,59.8 µM
COc1cc(O)c2c(c1)CCc1cc(O)ccc1-2 [LUSIANTHRIDIN],IC50,[14],4.6 µM
same,EC50,[6],22.3 µM
same,IC50,[6]; read-out: IC50,62.2 µM and 22.3 µM
COc1c(O)cc2c(c1OC)-c1ccc(O)cc1CC2 [ERIANTHRIDIN],IC50,[6]; read-out: IC50,14.9 µM
COC1=CC(=O)c2ccc3cc(OC)cc(O)c3c2C1=O [DENBINOBIN],IC50,[15],1.8 µM
same,IC50,[16],7.5 µM
COC1=CC(=O)c2c(ccc3cc(OC)c(O)cc23)C1=O,IC50,[17],0.27 µM
same,IC50,[18],0.08 µM
COc1cc(O)c2c(c1-c1c(OC)cc(O)c3c1ccc1cc(O)ccc13)CCc1cc(O)ccc1-2,IC50,"[19]; Homo sapiens, HL-60, read-out: IC50",7.3 µg/mL
same,IC50,[6],15.1 µg/mL
COc1cc2c(cc1O)CCc1cc(O)cc(OC)c1-2,IC50,[10],19.4 µM
same,IC50,[7],19.3 µM
same,IC50,[6]; read-out: IC50,9 µM
same,IC50,[8],0.04 µM
same,IC50,[9],9.4 µM
COc1cc(O)c2c(c1)CCc1cccc(O)c1-2,EC50,[6],10 µM
same,IC50,[6]; read-out: IC50,21.4 µM
COc1cc(O)c2c(c1)CCc1c-2ccc(OC)c1O,EC50,[6],27.7 µM
same,IC50,[6]; read-out: IC50,27.7 µM
CC(=O)N1CCN(c2ccc(OCC3COC(Cn4ccnc4)(c4ccc(Cl)cc4Cl)O3)cc2)CC1 (configuration not stated) [KETOCONAZOLE],zone of inhibition at 5 µg/disc,[20],15.7 mm
O=c1cc(N2CCOCC2)oc2c(-c3ccccc3)cccc12 [LY-294002],IC50,[21],4.8 µM
COc1cc(O)cc2c1-c1ccc(O)cc1CC2,IC50,[6]; read-out: IC50,16.7 µM and 8.5 µM
same,IC50,[8],0.08 µM
COc1cc(O)c2c(c1)CCc1cc(-c3c(OC)cc(O)c4c3CCc3cc(O)ccc3-4)c(O)cc1-2,IC50,[22],2.8 µM
same,IC50,[19]; hl-60,4 µM
same,IC50,[23],1.2 µM
same,IC50,[24],6.1 µM
Oc1cc2c3c(c1)COc1cc(O)cc(c1-3)CC2,IC50,[6]; read-out: IC50,6.6 µM
same,IC50,[8],0.08 µM
COc1ccc(O)c(C(C)(C)C)c1.COc1ccc(O)cc1C(C)(C)C [BUTYLATED HYDROXYANISOLE],IC50,[6],9.3 µg/mL
COc1cc(O)c2c(c1)CCc1cc(O)c(-c3c(OC)cc(O)c4c3CCc3cc(O)ccc3-4)cc1-2,EC50,[6],26.7 µM
COc1cc(O)c2c(c1)CCc1cc(-c3cc(OC)c4c(c3O)CCc3cc(O)ccc3-4)c(O)cc1-2,IC50,[22],6.1 µM
same,IC50,[19]; hl-60,1.3 µM
same,IC50,[23],9.2 µM
O=C1O[C@H]([C@@H](O)CO)C(O)=C1O [ASCORBIC ACID],Activity,[25],2.9%
same,Activity,[5],88.7%
same,IC50,[6]; read-out: IC50,18 µM
same,IC50,[26],0.41 µM
COc1c(O)cc2ccc3c(OC)c(O)ccc3c2c1OC,IC50,[6]; read-out: IC50,12.9 µM
COc1cc(O)cc2ccc3cccc(O)c3c12 [MOSCATIN],IC50,[6]; read-out: IC50,9.2 µM
COC(C)c1cc(O)cc2ccc3c(C)c(O)ccc3c12 (configuration not stated),IC50,"[11]; Mus musculus, RAW264.7",11.1 µM
same,IC50,[11]; raw264.7,16.3 µM
Oc1ccc(/C=C/c2cc(O)cc(O)c2)cc1 [RESVERATROL],EC50,[6],21.2 µM
same,IC50,[6]; read-out: IC50,28.7 µM
O=c1[nH]cc(F)c(=O)[nH]1 [FLUOROURACIL],IC50,[27],5 µg/mL
same,IC50,[28],4 µg/mL
same,IC50,[29],12 µg/mL
same,IC50,[30],8 µg/mL

# From ChEMBL document CHEMBL5244207, “Phenanthrenes: A Promising Group of Plant Secondary Metabolites” (J Nat Prod, 2018)
